Source: the NIST ThermoML archive (doi:10.1016/j.jct.2008.09.008)

Assay: wn = mass fraction of the nth substance listed
Conditions: 101 kPa, Liquid; for viscosity: Capillary tube (Ostwald / Ubbelohde) method; for speed of sound: Linear variable-path acoustic interferometer; for mass density: Pycnometric method

OCCCCO [1,4-butanediol] + O
Conditions | mass density, w1 = 0.2 [kg/m3] | mass density, w1 = 0.4 [kg/m3] | speed of sound, w1 = 0.2 [m/s] | speed of sound, w1 = 0.4 [m/s] | viscosity, w1 = 0.2 [mPa·s] | viscosity, w1 = 0.4 [mPa·s]
298.15 K | 1004.93 | 1013.41 | 1605.3 | 1684.2 | 3.421 | 6.454
303.15 K | 1002.93 | 1010.75 | 1606.6 | 1677.4 | 2.966 | 5.738
308.15 K | 1000.79 | 1008.04 | 1607.8 | 1670.7 | 2.542 | 4.993
313.15 K | 998.53 | 1005.28 | 1608.5 | 1664 | 2.142 | 4.221
318.15 K | 996.15 | 1002.46 | 1609.3 | 1657.2 | 1.774 | 3.421
